Laboratory results taken from patent publication EP0097546A1, “Benzhydrylsulfinyl ethyl amines, process for their preparation and their use in therapy” (LABORATOIRE L. LAFON Société anonyme dite:, priority 1982, dated 1984).

Legend:
Assay type in all cases: in vivo
[1] = tested on: souris mâle; assay: Toxicity, intraperitoneal route; details: male mouse, I.P. route
Description: (§1) On a résumé ci-après les résultats des essais neuro- pshychopharmacologiques qui ont été ertrepris avec le CRL 40883 (produit de l'exemple 1). Dans ces essais le CRL 40883 en solution dans de l'eau distillée à pH 5 a été administré par voie intra- péritonéale sous un volume de 20 ml/kg chez la souris mâle et sous un volume de 5 ml/kg chez le rat mâle.
• Chez la souris mâle la DL-30 par voie I.P. du CRL 40883 est de l'ordre de 250 mg/kg.

[2] = tested on: souris; assay: Global behaviour and reactivities in the mouse; details: i.p.
Description: as §1
(§2) • Des lots de 6 animaux sont observés avant, puis 15 minutes, 30 minutes, 1 h , 2 h , 3 h et 24 h après l'administration de CRL 40 883.

[3] = tested on: rat; assay: Global behaviour and reactivities in the rat; details: i.p.
Description: as §1, §2

[4] = tested on: hypothermies induites par l'apomorphine; assay: Antagonism of apomorphine-induced hypothermia; details: i.p.
Description: as §1

[5] = tested on: hypothermies induites par la réserpine; assay: Antagonism of reserpine-induced hypothermia; details: i.p.
Description: as §1

[6] = tested on: hypothermies induites par l'oxotrémorine; assay: Antagonism of oxotremorine-induced hypothermia; details: i.p.
Description: as §1

[7] = tested on: stéréotypies amphétaminiques; assay: Amphetamine stereotypies; details: i.p.
Description: as §1

[8] = tested on: groupes de souris; assay: Intergroup aggressiveness test; details: groups of mice, i.p., doses 16 mg/kg and 64 mg/kg
Description: as §1

SMILES: CNCC[S+]([O-])C(c1ccccc1)c1ccccc1 (centres unmarked) [CRL 40883, chlorhydratede N-[2-(benzhydrylsulfinyl)-éthyl]-méthylamine]
- DL-30 [1]: ~250 mg/kg
- comportement et réactivités ([2]; doses 64 mg/kg, 16 mg/kg, 4 mg/kg and 1 mg/kg, observed 15 min to 24 h): n'entraîne pas de modifications sensibles du comportement et des réactivités
- sédation ([2]; mainly at 128 mg/kg): sédation modérée
- réactivité au toucher ([3]; 32 mg/kg, lasting 30 minutes): hyporéactivité au toucher
- tonus musculaire ([3]; 32 mg/kg, lasting 30 minutes): hypotonie musculaire
- symptômes ([3]; doses 8 mg/kg, 2 mg/kg and 0,5 mg/kg): pas de symptômes particuliers
- antagonisme des hypothermies induites par l'apomorphine [4]: antagonisme
- antagonisme des hypothermies induites par la réserpine [5]: antagonisme
- antagonisme des hypothermies induites par l'oxotrémorine [6]: antagonisme
- stéréotypies amphétaminiques [7]: potentialisation des stéréotypies amphétaminiques
- nombre de combats [8]: forte diminution du nombre de combats
